Measured values published in patent US9233982B2, “Spiro tetrahydro—benzothiophen derivatives useful for the treatment neurodegenerative diseases” (Ares Trading S.A., priority 2012, dated 2016).
Structures can show the parent of a compound that is named as a salt.

Tests used:
BACE-1 [1] = target: T1, BACE-1 (Homo sapiens, UniProt P56817); experiment: LanthaScreen BACE1 biochemical assay (TR-FRET)
Experimental: Biochemical Assay to Assess Compounds for Inhibition of BACE-1
The LanthaScreen™ BACE1 assay kit from Invitrogen (Catalogue number PV4748) was used as the primary assay in the screening cascade.
Briefly, the test compound was incubated with the enzyme and substrate for 1 hour at room temperature in a reaction volume of 15 μl and then 5 nM terbium labelled anti-biotin antibody was added to stop the reaction and the solution incubated for a further 1 hour at room temperature. The microplate was read on an Envision plate reader fitted with a photometric 340 nm excitation filter and the amount of substrate that had been cleaved was represented by the TR-FRET ratio, calculated by dividing the Fluorescein emission signal (520 nm) by the Terbium emission signal (495 nm).

BACE-1 [2] = target: T1, BACE-1; experiment: HTRF cell based assay, Aβ1-40 peptide secreted by recombinant HEK293 cells; design: endogenous in cells; host or cells: recombinant HEK293 cells engineered to over-produce APP; settings: for EC50: Aβ1-40 secretion, recombinant HEK293 cells producing APP, overnight treatment, read-out: Cellular assay EC50 Ranges
Experimental: The cell based assay used to support the program utilized HTRF assay reagents from Cisbio (Catalogue number 62B40PEB) to quantify the amount of Aβ1-40 peptide secreted by recombinant HEK293 cells. The cells were engineered to produce high quantities of APP, the precursor for Aβ1-40 peptide, under hygromycin selection pressure. Briefly, cells were plated into 384-well microplates and allowed to settle for 2 hours prior to compound addition. Following overnight treatment with compound, the media containing secreted peptide was transferred into a low volume assay plate for quantification with HTRF immunoassay reagents. Adhering to the manufacturers protocol for quantification, a TR-FRET signal is obtained in the presence of the Aβ1-40 peptide following addition of a cryptate conjugated antibody and an XL665 conjugated antibody, each raised to a different epitope of the Aβ1-40 peptide. A low FRET signal is obtained when cells are treated with compounds that inhibit APP cleavage and peptide secretion.

T1 sequence (P56817 46-501): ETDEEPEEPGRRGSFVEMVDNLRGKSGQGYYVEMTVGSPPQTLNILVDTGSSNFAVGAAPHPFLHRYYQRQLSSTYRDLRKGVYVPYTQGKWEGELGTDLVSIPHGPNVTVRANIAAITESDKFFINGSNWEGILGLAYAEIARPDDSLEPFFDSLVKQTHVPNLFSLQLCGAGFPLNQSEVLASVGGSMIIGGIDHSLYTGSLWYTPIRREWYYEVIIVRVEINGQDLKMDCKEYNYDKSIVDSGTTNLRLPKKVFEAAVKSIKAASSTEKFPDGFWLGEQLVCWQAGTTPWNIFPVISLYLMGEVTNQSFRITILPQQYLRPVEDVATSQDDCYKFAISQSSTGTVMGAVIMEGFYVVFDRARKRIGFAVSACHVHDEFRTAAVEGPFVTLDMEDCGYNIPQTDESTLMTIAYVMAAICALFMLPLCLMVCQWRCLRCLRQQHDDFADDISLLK

| IC50 (BACE-1 [1]) [µM] | EC50 (BACE-1 [2]) [µM] | IC50 (BACE-1 [2]; reference inhibitor, inhibition of Aβ1-40 peptide secretion, 30,000 cells per well) [µM] | Compound |
| --- | --- | --- | --- |
| 5 to 65 | 5 to 50 | – | NC1=NC2(CCS1)CC(c1ccccc1)Cc1sc(-c3cccc(Br)c3)cc12 (racemic) [Example 43] |
| 1 to 5 | 5 to 50 | – | COc1ccc(-c2cccc(-c3cc4c(s3)CC(c3ccccc3)CC43CCSC(N)=N3)c2)cc1 (racemic) [Example 44] |
| 5 to 65 | 1 to 5 | – | COCC1Cc2sc(-c3cccc(C#N)c3)cc2C2(CCSC(N)=N2)C1 (racemic) [Example 45, 3-(2′-amino-6-(methoxymethyl)-5′,6,6′,7-tetrahydro-5H-spiro[benzo[b]thiophene-4,4′-[1,3]thiazine]-2-yl)benzonitrile, Hydrochloride Salt] |
| 5 to 65 | 1 to 5 | – | N#Cc1cccc(-c2cc3c(s2)CCC(Cc2ccccc2)C32CCSC(N)=N2)c1 (racemic) [Example 47, 3-(2′-amino-5-benzyl-5′,6,6′,7-tetrahydro-5H-spiro[benzo[b]thiophene-4,4′-[1,3]thiazine]-2-yl)benzonitrile] |
| 1 to 5 | 5 to 50 | – | COc1ccc(CC2CCc3sc(-c4cccc(C#N)c4)cc3C23CCSC(N)=N3)cc1 (racemic) [Example 48] |
| 5 to 65 | 1 to 5 | – | CN1C(=O)[C@]2(CCCc3sc(-c4cccc(C#N)c4)cc32)N=C1N (single isomer, unassigned) [Example 50] |
| < 1 | ≤ 1 | – | CN1C(=O)[C@@]2(CCCc3sc(-c4cccc(C#N)c4)cc32)N=C1N (single isomer, unassigned) [Example 51] |
| < 1 | ≤ 1 | – | N#Cc1cccc(-c2cc3c(s2)CCCC32CCSC(N)=N2)c1 (stereo in doubt) [Example 2, (R)-3-(2′-amino-5′,6,6′,7-tetrahydro-5H-spiro[benzo[b]thiophene-4,4′-[1,3]thiazine]-2-yl)benzonitrile] |
| 1 to 5 | ≤ 1 | – | N#Cc1cccc(-c2cc3c(s2)CCCC32CCSC(N)=N2)c1 (centres unmarked) [Example 1, 3-(2′-amino-5′,6,6′,7-tetrahydro-5H-spiro[benzo[b]thiophene-4,4′-[1,3]thiazine]-2-yl)benzonitrile, Formate Salt] |
| 5 to 65 | 5 to 50 | – | NC1=NC2(CCCc3sc(-c4ccc(F)cc4)cc32)CCS1 (centres unmarked) [Example 3] |
| 5 to 65 | 5 to 50 | – | NC1=NC2(CCCc3sc(-c4cccnc4)cc32)CCS1 (centres unmarked) [Example 4] |
| 5 to 65 | 5 to 50 | – | COc1ccc(-c2cc3c(s2)CCCC32CCSC(N)=N2)cn1 (centres unmarked) [Example 5] |
| 5 to 65 | 5 to 50 | – | NC1=NC2(CCCc3sc(-c4ccc5c(c4)CCO5)cc32)CCS1 (centres unmarked) [Example 6] |
| 5 to 65 | 5 to 50 | – | NC1=NC2(CCCc3sc(-c4cncnc4)cc32)CCS1 (centres unmarked) [Example 7] |
| 5 to 65 | 5 to 50 | – | NC1=NC2(CCCc3sc(-c4ccc5c(c4)OCO5)cc32)CCS1 (centres unmarked) [Example 8] |
| 5 to 65 | 1 to 5 | – | CS(=O)(=O)c1cccc(-c2cc3c(s2)CCCC32CCSC(N)=N2)c1 (centres unmarked) [Example 9] |
| 1 to 5 | ≤ 1 | – | COc1ccc(C#N)cc1-c1cc2c(s1)CCCC21CCSC(N)=N1 (centres unmarked) [Example 10] |
| 5 to 65 | 1 to 5 | – | COc1cc(C#N)cc(-c2cc3c(s2)CCCC32CCSC(N)=N2)c1F (centres unmarked) [Example 11] |
| 5 to 65 | 1 to 5 | – | N#Cc1cc(F)cc(-c2cc3c(s2)CCCC32CCSC(N)=N2)c1 (centres unmarked) [Example 12] |
| 5 to 65 | 5 to 50 | – | COC(=O)c1cccc(-c2cc3c(s2)CCCC32CCSC(N)=N2)c1 (centres unmarked) [Example 13] |
| 1 to 5 | 1 to 5 | – | N#Cc1cc(-c2cc3c(s2)CCCC32CCSC(N)=N2)ccc1F (centres unmarked) [Example 14] |
| 1 to 5 | ≤ 1 | – | N#Cc1ccc(F)c(-c2cc3c(s2)CCCC32CCSC(N)=N2)c1 (centres unmarked) [Example 15] |
| 1 to 5 | ≤ 1 | – | N#Cc1ccc(Cl)c(-c2cc3c(s2)CCCC32CCSC(N)=N2)c1 (centres unmarked) [Example 16] |
| 1 to 5 | 1 to 5 | – | COc1cc(C#N)cc(-c2cc3c(s2)CCCC32CCSC(N)=N2)c1 (centres unmarked) [Example 17] |

| IC50 (BACE-1 [1]) [µM] | EC50 (BACE-1 [2]) [µM] | IC50 (BACE-1 [2]; reference inhibitor, inhibition of Aβ1-40 peptide secretion, 30,000 cells per well) [µM] | Compound |
| --- | --- | --- | --- |
| 5 to 65 | 1 to 5 | – | COc1ncc(-c2cc3c(s2)CCCC32CCSC(N)=N2)cc1C#N (centres unmarked) [Example 18] |
| 5 to 65 | 1 to 5 | – | N#Cc1cncc(-c2cc3c(s2)CCCC32CCSC(N)=N2)c1 (centres unmarked) [Example 19] |
| 5 to 65 | 1 to 5 | – | N#Cc1cc(-c2cc3c(s2)CCCC32CCSC(N)=N2)ccn1 (centres unmarked) [Example 20] |
| 1 to 5 | 5 to 50 | – | NC1=NC2(CCCc3sc(-c4cccc(-c5ccccc5)c4)cc32)CCS1 (centres unmarked) [Example 21] |
| 5 to 65 | 1 to 5 | – | COc1ccc(-c2cc3c(s2)CCCC32CCSC(N)=N2)cc1C#N (centres unmarked) [Example 22] |
| 5 to 65 | 1 to 5 | – | COCc1cccc(-c2cc3c(s2)CCCC32CCSC(N)=N2)c1 (centres unmarked) [Example 23] |
| 1 to 5 | 5 to 50 | – | NC1=NC2(CCCc3sc(-c4cccc(OC(F)(F)F)c4)cc32)CCS1 (centres unmarked) [Example 24] |
| 1 to 5 | 5 to 50 | – | NC1=NC2(CCCc3sc(-c4cccc(C(F)(F)F)c4)cc32)CCS1 (centres unmarked) [Example 25] |
| 1 to 5 | 5 to 50 | – | NC1=NC2(CCCc3sc(-c4cccc(Oc5ccccc5)c4)cc32)CCS1 (centres unmarked) [Example 26] |
| 1 to 5 | 5 to 50 | – | CC(C)c1cccc(-c2cc3c(s2)CCCC32CCSC(N)=N2)c1 (centres unmarked) [Example 27] |
| 1 to 5 | 5 to 50 | – | NC1=NC2(CCCc3sc(-c4cccc(Cl)c4)cc32)CCS1 (centres unmarked) [Example 28] |
| 1 to 5 | 5 to 50 | – | NC1=NC2(CCCc3sc(-c4ccc(-c5ccccc5)cc4)cc32)CCS1 (centres unmarked) [Example 29] |
| 1 to 5 | 5 to 50 | – | NC1=NC2(CCCc3sc(-c4cccc(OCc5ccccc5)c4)cc32)CCS1 (centres unmarked) [Example 30] |
| 1 to 5 | 1 to 5 | – | N#Cc1cccc(-c2cc3c(s2)CCCC32CCSC(N)=N2)n1 (centres unmarked) [Example 31] |
| 1 to 5 | 5 to 50 | – | N#Cc1cc(-c2cc3c(s2)CCCC32CCSC(N)=N2)cc(C(F)(F)F)c1 (centres unmarked) [Example 32] |
| 1 to 5 | 5 to 50 | – | COc1ccc(-c2cccc(-c3cc4c(s3)CCCC43CCSC(N)=N3)c2)cc1 (centres unmarked) [Example 33] |
| 1 to 5 | 1 to 5 | – | N#Cc1cc(Cl)cc(-c2cc3c(s2)CCCC32CCSC(N)=N2)c1 (centres unmarked) [Example 34] |
| 1 to 5 | 1 to 5 | – | Cc1cc(C#N)cc(-c2cc3c(s2)CCCC32CCSC(N)=N2)c1 (centres unmarked) [Example 35] |
| 5 to 65 | 5 to 50 | – | NC1=NC2(CCCc3sc(-c4cccc(-c5ccccn5)c4)cc32)CCS1 (centres unmarked) [Example 36] |
| 5 to 65 | 5 to 50 | – | CC(C)(C)c1cccc(-c2cc3c(s2)CCCC32CCSC(N)=N2)c1 (centres unmarked) [Example 37] |
| 1 to 5 | 5 to 50 | – | COc1cccc(-c2cccc(-c3cc4c(s3)CCCC43CCSC(N)=N3)c2)c1 (centres unmarked) [Example 38] |
| 5 to 65 | 5 to 50 | – | NC1=NC2(CCCc3sc(-c4cccc(CC(F)(F)F)c4)cc32)CCS1 (centres unmarked) [Example 39] |
| 5 to 65 | 5 to 50 | – | NC1=NC2(CCCc3sc(NC(=O)c4ccc(Br)cn4)cc32)CCS1 (centres unmarked) [Example 40] |
| – | – | 0.0002 | C[C@H](NC(=O)Cc1cc(F)cc(F)c1)C(=O)N[C@@H]1C(=O)N(C)c2ccccc2-c2ccccc21 [reference compound] |
